Read-outs that look alike come from different tables or passages of the source.
Key:
Type in all cases: cell-based, hepatitis C virus
[1] = tested on: genotype 1a (H77) wild type transient HCV replicon in Huh-7-derived cells; assay: Transient-transfected HCV replicon EC50, genotype 1a wild type; conditions: Hepatitis C virus, 72 h, read-out: EC50 1A WT
[2] = tested on: genotype 3a (S52) stable HCV replicon in Huh-7-derived cells; assay: Stable subgenomic HCV replicon EC50, genotype 3a (Renilla luciferase); conditions: Hepatitis C virus, 72 h, read-out: EC50 3A RLUC
Protocol: (§1) Antiviral potency (EC50) was determined in both stable subgenomic HCV replicon cell lines and transient-transfected HCV replicon cells. The term half maximal effective concentration (EC50) refers to the concentration of a drug which induces a response halfway between the baseline and maximum after the exposure time specified below.
(§2) Stable subgenomic HCV replicons for genotype 1a, 1b, 2a, 3a, and 4a were established in Huh-7-derived cells as described by Lohmann et al (Lohmann V, Korner F, Koch J, et al Replication of subgenomic hepatitis C virus RNAs in a hepatoma cell line. Science 1999; 285:119-3) Each stable cell line contains a bicistronic HCV replicon that encodes a humanized Renilla luciferase (hRLuc) reporter gene fused to a selectable neomycin-resistance gene, followed by an EMCV IRES and the NS3-NS5B coding region of HCV. […] Luciferase activity was measured as a marker for intracellular HCV replication levels.
(§3) The genotype 1a stable replicon was derived from the H77 HCV strain and contained adaptive mutations P1496L and S2204I. The genotype 1b stable replicon was derived from the Con1 HCV strain and contained adaptive mutations E1202G, T1280I and K1846T. […] The genotype 3a stable replicon was derived from the S52 HCV strain and contained adaptive mutations P1121L, A1198T and S2210I (equivalent to S2204I in genotype 1). The genotype 4a stable replicon was derived from the ED43 HCV strain and contained adaptive mutations Q1691R and S2204I. All replicon cell lines were propagated in Huh-7-derived cells and maintained in Dulbecco's modified Eagle's Medium (DMEM) supplemented with 10% fetal bovine serum (FBS) and 0.5 mg/mL G418.
(§4) To perform EC50 assays, cells from each HCV replicon were dispensed into 384-well plates. Compounds were dissolved in DMSO at a concentration of 10 mM and diluted in DMSO using an automated pipetting instrument. Three-fold serially diluted compounds were directly added to the cells using an automated instrument. […] Seventy-two hours later, cells were lysed and Renilla luciferase activity were quantified as recommended by the manufacturer (Promega-Madison, Wis.). Non-linear regression was performed to calculate EC50 values.

[3] = tested on: genotype 1b (Con1) stable HCV replicon in Huh-7-derived cells; assay: Stable subgenomic HCV replicon EC50, genotype 1b (Renilla luciferase); conditions: Hepatitis C virus, stable replicon genotype 1b, 72 h, read-out: EC50 1B RLUC
Protocol: as §1, §2, §3, §4

[4] = tested on: genotype 1b (Con1) wild type transient HCV replicon in Huh-7-derived cells; assay: Transient-transfected HCV replicon EC50, genotype 1b wild type; conditions: Hepatitis C virus, 72 h, read-out: EC50 1B WT
[5] = tested on: genotype 2a (JFH-1) stable HCV replicon in Huh-7-derived cells; assay: Stable subgenomic HCV replicon EC50, genotype 2a (Renilla luciferase); conditions: Hepatitis C virus, stable replicon genotype 2a, 72 h, read-out: EC50 2A RLUC
Protocol: as §1, §2, §3, §4

[6] = tested on: genotype 4a (ED43) stable HCV replicon in Huh-7-derived cells; assay: Stable subgenomic HCV replicon EC50, genotype 4a (Renilla luciferase); conditions: Hepatitis C virus, 72 h, read-out: EC50 4A RLUC
Protocol: as §1, §2, §3, §4

[7] = tested on: genotype 3a (S52) wild type transient HCV replicon in Huh-7-derived cells; assay: Transient-transfected HCV replicon EC50, genotype 3a wild type; conditions: Hepatitis C virus, 72 h, read-out: EC50 3A WT
[8] = tested on: genotype 1a (H77) stable HCV replicon in Huh-7-derived cells; assay: Stable subgenomic HCV replicon EC50, genotype 1a (Renilla luciferase); conditions: Hepatitis C virus, stable replicon genotype 1a, 72 h, read-out: EC50 1A RLUC
Protocol: as §1, §2, §3, §4

[9] = tested on: genotype 1b NS3/4a protease inhibitor resistant variant D168A transient HCV replicon in Huh-7-derived cells; assay: Transient-transfected HCV replicon EC50, genotype 1b D168A; conditions: Hepatitis C virus, 72 h, read-out: EC50 1B D168A, transient-transfected replicon genotype 1b D168A resistant variant, 72 h
[10] = tested on: genotype 1a NS3/4a protease inhibitor resistant variant R155K transient HCV replicon in Huh-7-derived cells; assay: Transient-transfected HCV replicon EC50, genotype 1a R155K; conditions: Hepatitis C virus, 72 h, read-out: EC50 1A R155K, transient-transfected replicon genotype 1a R155K resistant variant, 72 h
[11] = transient-transfected replicon genotype 1a wild type
[12] = transient-transfected replicon genotype 1b wild type
[13] = transient-transfected replicon genotype 3a wild type

Row | Compound | EC50 [1, 11] | EC50 [2] | EC50 [3] | EC50 [4, 12] | EC50 [5] | EC50 [6] | EC50 [7, 13] | EC50 [8] | EC50 [9] | EC50 [10] | EC50 [1] | EC50 [4] | EC50 [7]
1 | CC[C@@H]1[C@@H]2CN(C(=O)[C@H](C(C)(C)C)NC(=O)O[C@@H]3C[C@H]3CCCCCc3nc4ccc(OC)cc4nc3O2)[C@@H]1C(=O)N[C@]1(C(=O)NS(=O)(=O)C2(C)CC2)C[C@H]1CC [Example 4, (1aR,5S,8S,9S,10R,22aR)-5-tert-butyl-9-ethyl-N-[(1R,2R)-2-ethyl-1-{[(1-methylcyclopropyl)sulfonyl]carbamoyl}cyclopropyl]-14-methoxy-3,6-dioxo-1,1a,3,4,5,6,9,10,18,19,20,21,22,22a-tetradecahydro-8H-7,10-methanocyclopropa[18,19][1,10,3,6]dioxadiazacyclononadecino[11,12-b]quinoxaline-8-carboxamide] | 0.0071 µM | 0.271 µM | 0.0096 µM | 0.0065 µM | 0.016 µM | 0.0079 µM | 0.068 µM | 0.0107 µM | 0.066 µM | 0.02 µM |  |  | 
2 | CC[C@@H]1[C@@H]2CN(C(=O)[C@H](C(C)(C)C)NC(=O)O[C@@H]3C[C@H]3CCCCC(F)(F)c3nc4ccc(OC)cc4nc3O2)[C@@H]1C(=O)N[C@]1(C(=O)NS(=O)(=O)C2CC2)C[C@H]1CC [Example 34, (1aR,5S,8S,9S,10R,22aR)-5-tert-butyl-N-{(1R,2R)-1-[(cyclopropylsulfonyl)carbamoyl]-2-ethylcyclopropyl}-9-ethyl-18,18-difluoro-14-methoxy-3,6-dioxo-1,1a,3,4,5,6,9,10,18,19,20,21,22,22a-tetradecahydro-8H-7,10-methanocyclopropa[18,19][1,10,3,6]dioxadiazacyclononadecino[11,12-b]quinoxaline-8-carboxamide] | 0.015 µM | 0.322 µM | 0.013 µM | 0.009 µM | 0.018 µM | 0.0097 µM | 0.046 µM | 0.012 µM | 0.064 µM | 0.018 µM |  |  | 
3 | CC[C@@H]1[C@@H]2CN(C(=O)[C@H](C(C)(C)C)NC(=O)O[C@@H]3C[C@H]3CCCCC(F)(F)c3nc4ccc(OC)cc4nc3O2)[C@@H]1C(=O)N[C@]1(C(=O)NS(=O)(=O)C2(C)CC2)C[C@H]1CC(F)F [Example 35, (1aR,5S,8S,9S,10R,22aR)-5-tert-butyl-N-[(1R,2S)-2-(2,2-difluoroethyl)-1-{[(1-methylcyclopropyl)sulfonyl]carbamoyl}cyclopropyl]-9-ethyl-18,18-difluoro-14-methoxy-3,6-dioxo-1,1a,3,4,5,6,9,10,18,19,20,21,22,22a-tetradecahydro-8H-7,10-methanocyclopropa[18,19][1,10,3,6]dioxadiazacyclononadecino[11,12-b]quinoxaline-8-carboxamide] | 0.012 µM | 0.162 µM | 0.011 µM | 0.01 µM | 0.0074 µM | 0.0076 µM | 0.035 µM | 0.0091 µM | 0.038 µM | 0.017 µM |  |  | 
4 | CC[C@@H]1[C@@H]2CN(C(=O)[C@H](C(C)(C)C)NC(=O)O[C@@H]3[C@H]4CC[C@H](C4)[C@H]3CCCCCc3nc4ccc(OC)cc4nc3O2)[C@@H]1C(=O)N[C@]1(C(=O)NS(=O)(=O)C2(C)CC2)C[C@H]1C(F)F [Example 37, (1R,4S,4aR,8S,11 S, 12S,13R,25aR)-8-tert-butyl-N-[(1R,2R)-2-(difluoromethyl)-1-{[(1-methylcyclopropyl)sulfonyl]carbamoyl}cyclopropyl]-12-ethyl-17-methoxy-6,9-dioxo-2,3,4,4a,6,7,8,9,12,13,21,22,23,24,25,25a-hexadecahydro-1H,11H-1,4:10,13-dimethanoquinoxalino[2,3-k][1,10,3,6]benzodioxadiazacyclononadecine-11-carboxamide] | 0.029 µM | 0.575 µM | 0.022 µM | 0.022 µM | 0.016 µM | 0.015 µM | 0.069 µM | 0.024 µM | 0.159 µM | 0.051 µM |  |  | 
5 | CC[C@@H]1[C@@H]2CN(C(=O)[C@H](C(C)(C)C)NC(=O)O[C@]3(C)CCC[C@H]3CCCCCc3nc4ccc(OC)cc4nc3O2)[C@@H]1C(=O)N[C@]1(C(=O)NS(=O)(=O)C2CC2)C[C@H]1C(F)F [Example 40, (3aR,7S,10S,11S,12R,24aR)-7-tert-butyl-N-[(1R,2R)-1-[(cyclopropylsulfonyl)carbamoyl]-2-(difluoromethyl)cyclopropyl]-11-ethyl-16-methoxy-3a-methyl-5,8-dioxo-1,2,3,3a,5,6,7,8,11,12,20,21,22,23,24,24a-hexadecahydro-10H-9,12-methanocyclopenta[18,19][1,10,3,6]dioxadiazacyclononadecino[11,12-b]quinoxaline-10-carboxamide] | 0.017 µM | 0.36 µM | 0.022 µM | 0.0086 µM | 0.048 µM | 0.018 µM | 0.156 µM | 0.025 µM | 0.129 µM | 0.074 µM |  |  | 
6 | CC[C@@H]1[C@@H]2CN(C(=O)[C@H](C(C)(C)C)NC(=O)O[C@]3(C)CCC[C@H]3CCCCCc3nc4ccc(OC)cc4nc3O2)[C@@H]1C(=O)N[C@]1(C(=O)NS(=O)(=O)C2(C)CC2)C[C@H]1CC(F)F [Example 41, (3aR,7S,10S,11S,12R,24aR)-7-tert-butyl-N-[(1R,2S)-2-(2,2-difluoroethyl)-1-{[(1-methylcyclopropyl)sulfonyl]carbamoyl}cyclopropyl]-11-ethyl-16-methoxy-3a-methyl-5,8-dioxo-1,2,3,3a,5,6,7,8,11,12,20,21,22,23,24,24a-hexadecahydro-10H-9,12-methanocyclopenta[18,19][1,10,3,6]dioxadiazacyclononadecino[11,12-b]quinoxaline-10-carboxamide] | 0.164 µM | 2.61 µM | 0.142 µM | 0.154 µM | 0.106 µM | 0.135 µM | 0.539 µM | 0.135 µM | 0.715 µM | 0.505 µM |  |  | 
7 | C=C[C@@H]1C[C@]1(NC(=O)[C@@H]1[C@H](C)[C@@H]2CN1C(=O)[C@H](C(C)(C)C)NC(=O)O[C@@H]1C[C@H]1CCCCCc1nc3ccc(OC)cc3nc1O2)C(=O)NS(=O)(=O)C1CC1 [Example 48, (1aR,5S,8S,9S,10R,22aR)-5-tert-butyl-N-{(1R,2S)-1-[(cyclopropylsulfonyl)carbamoyl]-2-ethenylcyclopropyl}-14-methoxy-9-methyl-3,6-dioxo-1,1a,3,4,5,6,9,10,18,19,20,21,22,22a-tetradecahydro-8H-7,10-methanocyclopropa[18,19][1,10,3,6]dioxadiazacyclononadecino[11,12-b]quinoxaline-8-carboxamide] |  | 0.073 µM | 0.0018 µM |  | 0.0097 µM | 0.0022 µM |  | 0.002 µM | 0.0065 µM | 0.004 µM | 0.0017 µM | 0.0011 µM | 0.013 µM
